Experimental data taken from patent publication US20220089568A1 (Janssen Biotech, Inc., priority 2019, published 2022).

What was measured:
[1] = biological target: T1, human DHODH (Homo sapiens, UniProt Q02127); assay: DHODH Enzymatic Assay; format: biochemical; settings: purified human DHODH; DCIP absorbance, end-point mode
T1 construct: purchased Proteros PR-0044
Method in brief: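 Purified human DHODH activity read as absorbance of DCIP, the terminal electron acceptor, in […] pH 7.5, 150 mM NaCl, 0.5 mM EDTA, 0.1% Triton X-100. Reaction started with a substrate mix of 20 mM DHO, 5 mM CoQ6 and 1 mM DCIP in assay buffer.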

[2] = tested on: MOLM-13 cells; assay: MOLM-13 Cellular Assay; format: cell-based; settings: Homo sapiens, 72 hours exposure, cell viability by CellTiter-Glo
Procedure: The day prior to assay set-up, cells were pelleted, resuspended in fresh media, counted, and cells were plated at 0.4×10^6 cell/mL in a T150 flask. […] Cells were exposed to different concentrations of test compounds at 37° C., 5% CO2 for 72 hours immediately after seeding.

T1 sequence (Q02127 whole entry): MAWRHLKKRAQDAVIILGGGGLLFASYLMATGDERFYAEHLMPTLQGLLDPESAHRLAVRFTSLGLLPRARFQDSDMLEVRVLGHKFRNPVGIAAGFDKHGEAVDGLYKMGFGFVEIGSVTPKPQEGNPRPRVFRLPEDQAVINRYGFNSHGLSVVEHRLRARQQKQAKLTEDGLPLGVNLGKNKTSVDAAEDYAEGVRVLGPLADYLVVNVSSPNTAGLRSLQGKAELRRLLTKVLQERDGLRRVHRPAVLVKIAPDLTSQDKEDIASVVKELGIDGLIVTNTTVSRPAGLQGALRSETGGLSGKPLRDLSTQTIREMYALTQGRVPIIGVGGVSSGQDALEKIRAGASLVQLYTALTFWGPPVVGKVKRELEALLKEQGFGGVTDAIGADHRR

SMILES | EC50 [1] | EC50 [2]
CCn1c(CO)nn(-c2nc(O[C@@H](C)C(F)(F)F)c(C(=O)Nc3cc(OC)ncc3C)cc2F)c1=O [Example 66, (S)-6-(4-ethyl-3-(hydroxymethyl)-5-oxo-4,5-dihydro-1H-1,2,4-triazol-1-yl)-5-fluoro-N-(2-methoxy-5-methylpyridin-4-yl)-2-((1,1,1-trifluoropropan-2-yl)oxy)nicotinamide] | 9.9 nM | 19.9 nM
CCn1c(CO)nn(-c2nc(O[C@@H](C)C(F)(F)F)c(C(=O)Nc3cc(C)cnc3Cl)cc2F)c1=O [Example 67, (S)-N-(2-Chloro-5-methylpyridin-3-yl)-6-(4-ethyl-3-(hydroxymethyl)-5-oxo-4,5-dihydro-1H-1,2,4-triazol-1-yl)-5-fluoro-2-((1,1,1-trifluoropropan-2-yl)oxy)nicotinamide] | 5.7 nM | 46.5 nM
CCn1c(CO)nn(-c2nc(O[C@@H](C)C(F)(F)F)c(C(=O)Nc3c(C)ccnc3OC)cc2F)c1=O [Example 68, (S)-6-(4-Ethyl-3-(hydroxymethyl)-5-oxo-4,5-dihydro-1H-1,2,4-triazol-1-yl)-5-fluoro-N-(2-methoxy-4-methylpyridin-3-yl)-2-((1,1,1-trifluoropropan-2-yl)oxy)nicotinamide] | 0.87 nM | 0.886 nM
CCn1c(CO)nn(-c2nc(O[C@@H](C)C(F)(F)F)c(C(=O)Nc3c(Cl)ccnc3Cl)cc2F)c1=O [Example 69, (S)-N-(2,4-Dichloropyridin-3-yl)-6-(4-ethyl-3-(hydroxymethyl)-5-oxo-4,5-dihydro-1H-1,2,4-triazol-1-yl)-5-fluoro-2-((1,1,1-trifluoropropan-2-yl)oxy)nicotinamide] | 0.611 nM | 0.673 nM
CCOc1ncc(F)c(NC(=O)c2cc(F)c(-n3nc(CO)n(CC)c3=O)nc2O[C@@H](C)C(F)(F)F)n1 [Example 70, (S)-N-(2-Ethoxy-5-fluoropyrimidin-4-yl)-6-(4-ethyl-3-(hydroxymethyl)-5-oxo-4,5-dihydro-1H-1,2,4-triazol-1-yl)-5-fluoro-2-((1,1,1-trifluoropropan-2-yl)oxy)nicotinamide] | 489 nM | > 100 nM
CCn1c(CO)nn(-c2nc(O[C@@H](C)C(F)(F)F)c(C(=O)Nc3c(C)cncc3F)cc2F)c1=O [Example 71, (S)-6-(4-Ethyl-3-(hydroxymethyl)-5-oxo-4,5-dihydro-1H-1,2,4-triazol-1-yl)-5-fluoro-N-(3-fluoro-5-methylpyridin-4-yl)-2-((1,1,1-trifluoropropan-2-yl)oxy)nicotinamide] | 5.6 nM | 21.1 nM
CCn1c(CO)nn(-c2nc(O[C@@H](C)C(F)(F)F)c(C(=O)Nc3c(C)cc(C)nc3Cl)cc2F)c1=O [Example 72, (S)-N-(2-Chloro-4,6-dimethylpyridin-3-yl)-6-(4-ethyl-3-(hydroxymethyl)-5-oxo-4,5-dihydro-1H-1,2,4-triazol-1-yl)-5-fluoro-2-((1,1,1-trifluoropropan-2-yl)oxy)nicotinamide] | 0.895 nM | 1.4 nM
CCn1c(CO)nn(-c2nc(O[C@@H](C)C(F)(F)F)c(C(=O)Nc3nccn3C3CC3)cc2F)c1=O [Example 73, (S)-N-(1-Cyclopropyl-1H-imidazol-2-yl)-6-(4-ethyl-3-(hydroxymethyl)-5-oxo-4,5-dihydro-1H-1,2,4-triazol-1-yl)-5-fluoro-2-((1,1,1-trifluoropropan-2-yl)oxy)nicotinamide] | 95.2 nM | > 100 nM
CCn1c(CO)nn(-c2nc(O[C@@H](C)C(F)(F)F)c(C(=O)Nc3cc(C#N)ccc3Cl)cc2F)c1=O [Example 74, (S)-N-(2-Chloro-5-cyanophenyl)-6-(4-ethyl-3-(hydroxymethyl)-5-oxo-4,5-dihydro-1H-1,2,4-triazol-1-yl)-5-fluoro-2-((1,1,1-trifluoropropan-2-yl)oxy)nicotinamide] | 1.7 nM | 13 nM
CCn1c(CO)nn(-c2nc(O[C@@H](C)C(F)(F)F)c(C(=O)Nc3cc(C#N)cnc3Cl)cc2F)c1=O [Example 75, (S)-N-(2-Chloro-5-cyanopyridin-3-yl)-6-(4-ethyl-3-(hydroxymethyl)-5-oxo-4,5-dihydro-1H-1,2,4-triazol-1-yl)-5-fluoro-2-((1,1,1-trifluoropropan-2-yl)oxy)nicotinamide] | 19.2 nM | > 100 nM
CCn1c(CO)nn(-c2nc(O[C@@H](C)C(F)(F)F)c(C(=O)Nc3c(N(C)C)ccnc3OC)cc2F)c1=O [Example 76, (S)-N-(4-(Dimethylamino)-2-methoxypyridin-3-yl)-6-(4-ethyl-3-(hydroxymethyl)-5-oxo-4,5-dihydro-1H-1,2,4-triazol-1-yl)-5-fluoro-2-((1,1,1-trifluoropropan-2-yl)oxy)nicotinamide] | 3.6 nM | 27.9 nM
CCn1c(CO)nn(-c2nc(O[C@@H](C)C(F)(F)F)c(C(=O)Nc3ccc(C)nc3Cl)cc2F)c1=O [Example 77, N-(2-Chloro-6-methyl-3-pyridyl)-6-[4-ethyl-3-(hydroxymethyl)-5-oxo-1,2,4-triazol-1-yl]-5-fluoro-2-[(1S)-2,2,2-trifluoro-1-methyl-ethoxy]pyridine-3-carboxamide] | 14 nM | 13.2 nM
CCn1c(CO)nn(-c2nc(O[C@@H](C)C(F)(F)F)c(C(=O)Nc3cc(F)cnc3Cl)cc2F)c1=O [Example 78, N-(2-Chloro-5-fluoro-3-pyridyl)-6-[4-ethyl-3-(hydroxymethyl)-5-oxo-1,2,4-triazol-1-yl]-5-fluoro-2-[(1S)-2,2,2-trifluoro-1-methyl-ethoxy]pyridine-3-carboxamide] | 12.3 nM | 25 nM
CCn1c(CO)nn(-c2nc(O[C@@H](C)C(F)(F)F)c(C(=O)Nc3c(Cl)ccnc3C)cc2F)c1=O [Example 79, N-(4-Chloro-2-methyl-3-pyridyl)-6-[4-ethyl-3-(hydroxymethyl)-5-oxo-1,2,4-triazol-1-yl]-5-fluoro-2-[(1S)-2,2,2-trifluoro-1-methyl-ethoxy]pyridine-3-carboxamide] | 1.9 nM | 5.3 nM
CCn1c(CO)nn(-c2nc(O[C@@H](C)C(F)(F)F)c(C(=O)Nc3cn(C)nc3Cl)cc2F)c1=O [Example 80, N-(3-Chloro-1-methyl-pyrazol-4-yl)-6-[4-ethyl-3-(hydroxymethyl)-5-oxo-1,2,4-triazol-1-yl]-5-fluoro-2-[(1S)-2,2,2-trifluoro-1-methyl-ethoxy]pyridine-3-carboxamide] | 7.2 nM | 12.9 nM
CCn1c(CO)nn(-c2nc(O[C@@H](C)C(F)(F)F)c(C(=O)Nc3cc(C(F)F)ncc3F)cc2F)c1=O [Example 81, N-[2-(Difluoromethyl)-5-fluoro-4-pyridyl]-6-[4-ethyl-3-(hydroxymethyl)-5-oxo-1,2,4-triazol-1-yl]-5-fluoro-2-[(1S)-2,2,2-trifluoro-1-methyl-ethoxy]pyridine-3-carboxamide] | 568 nM | > 100 nM
CCn1c(CO)nn(-c2nc(O[C@@H](C)C(F)(F)F)c(C(=O)Nc3nc(OC)ncc3F)cc2F)c1=O [Example 82, 6-[4-Ethyl-3-(hydroxymethyl)-5-oxo-1,2,4-triazol-1-yl]-5-fluoro-N-(5-fluoro-2-methoxy-pyrimidin-4-yl)-2-[(1S)-2,2,2-trifluoro-1-methyl-ethoxy]pyridine-3-carboxamide] | 729 nM | > 100 nM
CCn1c(CO)nn(-c2nc(O[C@@H](C)C(F)(F)F)c(C(=O)Nc3c(Cl)ccc(C)c3C)cc2F)c1=O [Example 83, N-(6-Chloro-2,3-dimethyl-phenyl)-6-[4-ethyl-3-(hydroxymethyl)-5-oxo-1,2,4-triazol-1-yl]-5-fluoro-2-[(1S)-2,2,2-trifluoro-1-methyl-ethoxy]pyridine-3-carboxamide] | 0.69 nM | 0.73 nM
CCCn1c(CO)nn(-c2nc(O[C@@H](C)C(F)(F)F)c(C(=O)Nc3c(C)ccnc3Cl)cc2F)c1=O [Example 84, N-(2-Chloro-4-methyl-3-pyridyl)-5-fluoro-6-[3-(hydroxymethyl)-5-oxo-4-propyl-1,2,4-triazol-1-yl]-2-[(1S)-2,2,2-trifluoro-1-methyl-ethoxy]pyridine-3-carboxamide] | 5.1 nM | 4.8 nM
CCn1c(CO)nn(-c2nc(O[C@@H](C)C(F)(F)F)c(C(=O)Nc3c(C)cnc(OC)c3C)cc2F)c1=O [Example 85, 6-[4-Ethyl-3-(hydroxymethyl)-5-oxo-1,2,4-triazol-1-yl]-5-fluoro-N-(2-methoxy-3,5-dimethyl-4-pyridyl)-2-[(1S)-2,2,2-trifluoro-1-methyl-ethoxy]pyridine-3-carboxamide] | 0.91 nM | 1.1 nM
Cc1ccnc(Cl)c1NC(=O)c1cc(F)c(-n2nc(CF)n(C(C)C)c2=O)nc1O[C@@H](C)C(F)(F)F [Example 86, (S)-2-(5-(((2-Chloro-4-methylpyridin-3-yl)-l2-azaneyl)carbonyl)-3-fluoro-6-((1,1,1-trifluoropropan-2-yl)oxy)pyridin-2-yl)-5-(fluoromethyl)-4-isopropyl-2,4-dihydro-3H-1,2,4-triazol-3-one] | 3.9 nM | 1.8 nM
CCn1c(CF)nn(-c2nc(O[C@@H](C)C(F)(F)F)c(C(=O)Nc3c(C)ccnc3Cl)cc2F)c1=O [Example 87, N-(2-Chloro-4-methyl-3-pyridyl)-6-[4-ethyl-3-(fluoromethyl)-5-oxo-1,2,4-triazol-1-yl]-5-fluoro-2-[(1S)-2,2,2-trifluoro-1-methyl-ethoxy]pyridine-3-carboxamide] | 0.448 nM | 1.14 nM
CCn1c(CO)nn(-c2nc(OC(C)C)c(C(=O)Nc3c(C)cnc(OC)c3Cl)cc2F)c1=O [Example 88, N-(3-Chloro-2-methoxy-5-methyl-4-pyridyl)-6-[4-ethyl-3-(hydroxymethyl)-5-oxo-1,2,4-triazol-1-yl]-5-fluoro-2-isopropoxy-pyridine-3-carboxamide] | 1.16 nM | 2.34 nM
